Laboratory results: article PMC6504579 (Journal of immunology (Baltimore, Md. : 1950), 2019)
Read-outs that look alike come from different tables or passages of the source.

Assay type: in vitro ADME, human
Details: for ATK9 epitope produced (share of degradation products): representative donor; for degradation rate of substrate in CD3/CD28-stimulated vs non-stimulated extracts: paired CD4 T cell cytosolic extracts, 37 °C, pH 7.4, LC-MS/MS; for time of peak production of N-extended TW10 precursors: sampled at 2, 5 and 8 h
[1] = CD3/CD28-stimulated extract, 120 min
[2] = CD3/CD28-stimulated extract, 180 min
[3] = non-stimulated extract, 120 min
[4] = non-stimulated extract, 180 min

Row | SMILES | antitopes produced (share of degradation products) [1] | ATK9 epitope produced (share of degradation products) [1] | antitopes produced (share of degradation products) [2] | ATK9 epitope produced (share of degradation products) [2] | antitopes produced (share of degradation products) [3] | ATK9 epitope produced (share of degradation products) [3] | antitopes produced (share of degradation products) [4] | ATK9 epitope produced (share of degradation products) [4] | degradation rate of substrate in CD3/CD28-stimulated vs non-stimulated extracts | time of peak production of N-extended TW10 precursors (activated extracts) | time of peak production of N-extended TW10 precursors (extracts from resting CD4 T cells) | detection of optimal TW10 at 2, 5 and 8 hours (paired resting and activated extracts)
1 | CC[C@H](C)[C@H](NC(=O)[C@H](C)NC(=O)[C@@H]1CCCN1C(=O)[C@H](CO)NC(=O)CNC(=O)[C@H](CCCCN)NC(=O)[C@@H](N)Cc1c[nH]c2ccccc12)C(=O)N[C@@H](Cc1ccccc1)C(=O)N[C@@H](CCC(N)=O)C(=O)N[C@@H](CO)C(=O)N[C@@H](CO)C(=O)N[C@@H](CCSC)C(=O)N[C@H](C(=O)N[C@@H](CCCCN)C(=O)N[C@H](C(=O)N[C@@H](CC(C)C)C(=O)O)[C@@H](C)CC)[C@@H](C)O [5-ATK9–2] | 66.43% | 0.49% | 79.38% | 0.54% | 48.1% | 1.05% | 57.7% | 1.06% | degraded faster | – | – | –
2 | CC[C@H](C)[C@H](NC(=O)[C@H](CCC(N)=O)NC(=O)[C@H](CCC(=O)O)NC(=O)[C@H](CCC(N)=O)NC(=O)[C@H](CC(C)C)NC(=O)[C@@H](NC(=O)[C@H](CO)NC(=O)[C@@H](NC(=O)[C@@H](NC(=O)CNC(=O)[C@H](C)NC(=O)[C@@H](NC(=O)[C@@H](N)CC(=O)O)[C@@H](C)CC)[C@@H](C)O)[C@@H](C)O)[C@@H](C)O)C(=O)NCC(=O)N[C@@H](Cc1c[nH]c2ccccc12)C(=O)N[C@@H](CCSC)C(=O)N[C@H](C(=O)N[C@@H](CC(N)=O)C(=O)O)[C@@H](C)O [5-TW10–3] | – | – | – | – | – | – | – | – | faster degradation rates | 2 h | 5 h | only in activated extracts
